In one series the test system is FaDu H&N cancer cells. Briefly: Sensitivity of FaDu cells to cisplatin with siRNAs. It is filed as cell-based. Here is the method: BCLxL and MCL1 siRNAs were mixed together in Lipofectamine RNAiMax and used to transfect FaDu H&N cancer cells. Final combined siRNA concentrations of 0.05 nM, 0.15 nM and 0.45 nM were compared with the effect of a non-silencing (NS) siRNA administered at the same concentrations. The effect of treatment with siRNAs on sensitivity to cisplatin (at 0-64 μM) also were evaluated.

A further series has as its target BCLxL (Homo sapiens, UniProt Q07817). Particulars: consequence of its inhibition of BCLxL; cited from earlier work.

Bounds are passed on as bounds.

BCLxL, sequence (Q07817 whole entry, species assumed): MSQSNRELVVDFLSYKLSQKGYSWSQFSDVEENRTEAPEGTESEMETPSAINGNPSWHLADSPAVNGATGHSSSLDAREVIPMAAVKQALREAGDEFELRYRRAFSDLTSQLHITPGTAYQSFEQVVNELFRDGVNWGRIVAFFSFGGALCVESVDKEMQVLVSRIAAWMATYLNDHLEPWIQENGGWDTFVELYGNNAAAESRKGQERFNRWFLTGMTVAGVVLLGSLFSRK

In the case of `N.N.[Cl][Pt][Cl]` [cisplatin], the “amount of cisplatin required to cause 100% inhibition of the tumor cell viability” value was ~32 µM in the series with FaDu H&N cancer cells (in the presence of 0.45 nM NS siRNA) and < 1 µM with FaDu H&N cancer cells (in the presence of 0.45 nM of BCLxL/MCL1 siRNAs).
On to `CC1(C)CCC(c2ccc(Cl)cc2)=C(CN2CCN(c3ccc(C(=O)NS(=O)(=O)c4ccc(N[C@H](CCN5CCOCC5)CSc5ccccc5)c(S(=O)(=O)C(F)(F)F)c4)cc3)CC2)C1` [ABT263], for which the thrombocytopenia entry on BCLxL is listed as “induces thrombocytopenia”.
